Reference: patent publication US9220719B2, “Single dose oral formulations and methods for treatment of cats with ectoparasiticidal spinosad” (priority 2012, dated 2015)

Legend:
[1] = Pharmacokinetics of spinosad API capsules and spinosad tablets after oral administration to cats (Example 2); details: for mean Tmax / mean elimination half-life (t1/2) / mean normalized AUC0-∞ / mean normalized Cmax: cats, oral; for mean normalized AUC0-∞ / mean normalized Cmax: plasma, normalized to dose
Protocol: The plasma concentrations and resulting pharmacokinetics of spinosad tablets when administered orally to adult cats in the fed or fasted state can be evaluated. Twenty four cats (12 male and 12 female) can be dosed with approximately 80 mg/kg spinosad, as either API in gelatin capsules or as spinosad formulated chewable tablets. Serial blood samples can be collected through 672 hours (28 days) after dose administration. […] Samples can be immediately mixed by inversion several times and stored on ice until centrifuged. The plasma can be collected, split into two approximately equal aliquots and stored frozen at approximately −70° C. until shipped for analysis, and/or analyzed by a validated LC/MS/MS assay.

[2] = Tolerability of oral spinosad in cats (Example 1); format: in vivo, cat; details: single oral dose 35-50 mg/kg in gelatin capsule
[3] = test system: adult cat fleas (Ctenocephalides felis); test: Dose confirmation: efficacy of beef flavored spinosad tablet against fleas on experimentally infested cats (Example 3); format: in vivo; details: beef flavored tablet 50-75 mg/kg single oral dose
Protocol: The treatment effect (insecticidal efficacy) of a beef flavored spinosad tablet when administered orally at a dose of 50-75 mg/kg against fleas (Ctenocephalides felis) on experimentally infested cats can be evaluated at one day post-administration and for the post-treatment prevention effect (residual efficacy) on Days 7, 14, 21 and 28.
(§1) In total, twenty-two (22) cats can be acclimatized for the study and from these, 17 can be selected based on pre-treatment weight and flea retention counts to be randomized into either a treated or control group. Nine cats can be assigned to the control group and eight cats can be assigned to the treatment group based on flea retention counts from Day −5. Cats in the treated group can be dosed on Day 0 with the intended final formulation, a beef flavored tablet containing spinosad at a dose rate of 50-75 mg/kg spinosad/body weight, while the cats in the control group can be dosed with a vehicle control tablet.
Each cat can be infested with approximately 100 fleas on Days −1, 7, 14, 21 and 28 and then combed and the fleas counted on Days 1, 9, 16, 23 and 30 respectively.
(§2) Seventeen cats were randomized based on pre-treatment flea infestation counts into either a treated or control group. Eight cats were dosed on Day 0 with a beef flavored tablet containing spinosad with an overall dose range of 51.47 to 76.06 mg/kg spinosad body weight. The other nine cats were dosed with a vehicle control tablet.

[4] = test system: adult cat flea (Ctenocephalides felis); test: Dose determination: knockdown and residual effectiveness of spinosad (gelatin capsule) against adult fleas on experimentally infested cats (Example 1); format: in vivo; details: for Geometric Mean Counts of Adult C. felis / Geometric Mean Percent Reduction of Adult C. felis Compared to Untreated Control Group: fed
Excerpt: The “knockdown” and “residual” effectiveness of spinosad can be evaluated following oral administration at four different single dosages, compared to a non-treated control group, against the adult cat flea (Ctenocephalides felis) on experimentally infested cats. A minimum effective oral dose in cats can be evaluated based on knockdown efficacy (i.e., on Day 1 following administration) and on residual efficacy (i.e., on Day 30 following administration) against the cat flea (Ctenocephalides felis).
Forty cats can be evaluated in a randomized complete block design with cat gender and pretreatment live flea counts used as blocking factors. Five treatment groups of four female and four male cats per group can be orally dosed on Test Day 0: Group (1) can be administered 0 mg/kg vehicle control (empty gelatin capsule); Group (2) can be administered spinosad in a gelatin capsule at a dose of 35 mg/kg body weight; Group (3) can be administered spinosad in a gelatin capsule at a dose of 40 mg/kg body weight; Group (4) can be administered spinosad in a gelatin capsule at a dose of 45 mg/kg body weight; and Group (5) can be administered spinosad in a gelatin capsule at a dose of 50 mg/kg body weight. All cats can consume canned cat food just prior to dosing to ensure they were in a fed state. Each cat can be infested with approximately 100 newly emerged, unfed adult fleas (C. felis), on Test Days −6, −1, 5, 12, 19, 28 and 35. Individual animal flea counts can be performed approximately 48-hours post-infestation using the laboratory's comb counting method on Test Days −4, 1, 7, 14, 21, 30 and 37. The Day −4 pre-treatment live flea counts can be used to allocate animals to the five treatment groups. The Day 1, 7, 14, 21, 30 and 37 flea counts can be used to evaluate the knockdown (Day 1) and residual flea efficacy in each of the treated groups compared to the vehicle (negative) control group.

[5] = test system: adult cat fleas (Ctenocephalides felis); test: Dose confirmation: efficacy of flavored spinosad tablet against fleas on experimentally infested cats (Example 4); format: in vivo; details: flavored tablet 50-75 mg/kg single oral dose, fed
Excerpt: Confirmation of the efficacious dose of spinosad can be evaluated in cats experimentally infested with adult fleas (Ctenocephalides felis).
Twenty-four (24) cats that meet the inclusion/exclusion criteria and had the highest pre-treatment live flea (C. felis) counts can be included in a randomized complete block design with pre-treatment live flea counts used as a blocking factor. Each cat can be infested with approximately 100 unfed adult fleas (C. felis) on Test Day −9. Pre-treatment live flea counts can be conducted using the laboratory's comb counting method on Test Day −7. The Test Day −7 live flea counts can be used to allocate cats to one of two treatment groups. The two treatment groups of 12 cats per group can be orally dosed on Test Day 0. One group (5 male: 7 female) can receive vehicle control (0 mg/kg placebo tablets) and the second group (7 male: 5 female) can receive flavored spinosad tablets at a dose rate of 50-75 mg/kg body weight. Cats can consume canned cat food just prior to dosing and can be offered their daily maintenance diet after dosing. Each cat can be infested with approximately 100 unfed adult fleas (C. felis) on Test Days −1, 5, 12, 19, 28 and 35. Individual animal live flea counts can be performed on Test Days 1, 7, 14, 21, 30 and 37.

[6] = Tolerability of flavored spinosad tablet in cats (Example 3); format: in vivo, cat; details: beef flavored tablet 51.47 to 76.06 mg/kg single oral dose
Excerpt: as §1, §2

[7] = group 1: 80 mg/kg spinosad API in gel capsules, fed
[8] = group 2: 80 mg/kg spinosad tablets, fed
[9] = group 3: 80 mg/kg spinosad tablets, fasted
[10] = single oral dose 35 mg/kg in gelatin capsule, Day 7 post treatment
[11] = single oral dose 35 mg/kg in gelatin capsule, Day 14 post treatment
[12] = single oral dose 35 mg/kg in gelatin capsule, Day 21 post treatment
[13] = single oral dose 35 mg/kg in gelatin capsule, Day 37 post treatment
[14] = single oral dose 40 mg/kg in gelatin capsule, Day 7 post treatment
[15] = single oral dose 40 mg/kg in gelatin capsule, Day 14 post treatment
[16] = single oral dose 40 mg/kg in gelatin capsule, Day 21 post treatment
[17] = single oral dose 40 mg/kg in gelatin capsule, Day 30 post treatment
[18] = single oral dose 40 mg/kg in gelatin capsule, Day 37 post treatment
[19] = single oral dose 45 mg/kg in gelatin capsule, Day 7 post treatment
[20] = single oral dose 45 mg/kg in gelatin capsule, Day 14 post treatment
[21] = single oral dose 45 mg/kg in gelatin capsule, Day 21 post treatment
[22] = single oral dose 45 mg/kg in gelatin capsule, Day 37 post treatment
[23] = single oral dose 50 mg/kg in gelatin capsule, Day 7 post treatment
[24] = single oral dose 50 mg/kg in gelatin capsule, Day 14 post treatment
[25] = single oral dose 50 mg/kg in gelatin capsule, Day 21 post treatment
[26] = single oral dose 50 mg/kg in gelatin capsule, Day 30 post treatment
[27] = single oral dose 50 mg/kg in gelatin capsule, Day 37 post treatment

## spinosyn A
[1]; [7]
  mean Tmax: 12 ± 5.2 h
  mean elimination half-life (t1/2): 327 ± 84.3 h
  mean normalized AUC0-∞: 4,460±1410 hr*ng*kg/mg*mL
  mean normalized Cmax: 60 ± 18 ng·kg/mg/mL
[1]; [8]
  mean Tmax: 10 ± 3.0 h
  mean elimination half-life (t1/2): 277 ± 75.5 h
  mean normalized AUC0-∞: 4,480±1180 hr*ng*kg/mg*mL
  mean normalized Cmax: 46 ± 14 ng·kg/mg/mL
[1]; [9]
  mean Tmax: 6.0 ± 3.7 h
  mean elimination half-life (t1/2): 193 ± 60.5 h
  mean normalized AUC0-∞: 781 ± 406 ng·kg·h/mg/mL
  mean normalized Cmax: 11 ± 6.6 ng·kg/mg/mL

## spinosad
[2]
  tolerability: well tolerated
[3]; Day 1 post treatment
  Geometric Mean Percent Reduction of Adult C. felis Compared to Untreated Control Group: 100.0%
[3]; Day 7 (day of infestation, counted Day 9)
  Geometric Mean Percent Reduction of Adult C. felis Compared to Untreated Control Group: 100.0%
[3]; Day 14 (day of infestation, counted Day 16)
  Geometric Mean Percent Reduction of Adult C. felis Compared to Untreated Control Group: 99.69%
[3]; Day 21 (day of infestation, counted Day 23)
  Geometric Mean Percent Reduction of Adult C. felis Compared to Untreated Control Group: 99.45%
[3]; Day 28 (day of infestation, counted Day 30)
  Geometric Mean Percent Reduction of Adult C. felis Compared to Untreated Control Group: 98.05%
[4]; 50 mg/kg oral, up through Day 21
  fleas at each comb count: zero
[4]; all four spinosad groups (35, 40, 45, 50 mg/kg oral), up to and including Day 21 post-treatment
  post-treatment residual flea efficacy (geometric means): > 90%
[4]; single oral dose 35 mg/kg in gelatin capsule, Day 1 post treatment
  Geometric Mean Counts of Adult C. felis: (0.0)
[4]; single oral dose 35 mg/kg in gelatin capsule, Day 1 post treatment, 35 mg/kg
  Geometric Mean Percent Reduction of Adult C. felis Compared to Untreated Control Group: 100%
[4]; [10]
  Geometric Mean Counts of Adult C. felis: (0.0)
  Geometric Mean Percent Reduction of Adult C. felis Compared to Untreated Control Group: 100.00%
[4]; [11]
  Geometric Mean Counts of Adult C. felis: (0.2)
  Geometric Mean Percent Reduction of Adult C. felis Compared to Untreated Control Group: 99.74%
[4]; [12]
  Geometric Mean Counts of Adult C. felis: (5.4)
  Geometric Mean Percent Reduction of Adult C. felis Compared to Untreated Control Group: 92.94%
[4]; single oral dose 35 mg/kg in gelatin capsule, Day 30 post treatment
  Geometric Mean Counts of Adult C. felis: (11.8)
[4]; [13]
  Geometric Mean Counts of Adult C. felis: (32.4)
  Geometric Mean Percent Reduction of Adult C. felis Compared to Untreated Control Group: 52.20%
[4]; single oral dose 40 mg/kg in gelatin capsule, Day 1 post treatment
  Geometric Mean Counts of Adult C. felis: (0.0)
[4]; single oral dose 40 mg/kg in gelatin capsule, Day 1 post treatment, 40 mg/kg
  Geometric Mean Percent Reduction of Adult C. felis Compared to Untreated Control Group: 100%
[4]; [14]
  Geometric Mean Counts of Adult C. felis: (0.0)
  Geometric Mean Percent Reduction of Adult C. felis Compared to Untreated Control Group: 100.00%
[4]; [15]
  Geometric Mean Counts of Adult C. felis: (0.0)
  Geometric Mean Percent Reduction of Adult C. felis Compared to Untreated Control Group: 100.00%
[4]; [16]
  Geometric Mean Counts of Adult C. felis: (1.0)
  Geometric Mean Percent Reduction of Adult C. felis Compared to Untreated Control Group: 98.74%
[4]; [17]
  Geometric Mean Counts of Adult C. felis: (5.2)
  Geometric Mean Percent Reduction of Adult C. felis Compared to Untreated Control Group: 91.59%
[4]; [18]
  Geometric Mean Counts of Adult C. felis: (18.9)
  Geometric Mean Percent Reduction of Adult C. felis Compared to Untreated Control Group: 72.18%
[4]; single oral dose 45 mg/kg in gelatin capsule, Day 1 post treatment
  Geometric Mean Counts of Adult C. felis: (0.0)
[4]; single oral dose 45 mg/kg in gelatin capsule, Day 1 post treatment, 45 mg/kg
  Geometric Mean Percent Reduction of Adult C. felis Compared to Untreated Control Group: 100%
[4]; [19]
  Geometric Mean Counts of Adult C. felis: (0.4)
  Geometric Mean Percent Reduction of Adult C. felis Compared to Untreated Control Group: 99.50%
[4]; [20]
  Geometric Mean Counts of Adult C. felis: (2.0)
  Geometric Mean Percent Reduction of Adult C. felis Compared to Untreated Control Group: 97.22%
[4]; [21]
  Geometric Mean Counts of Adult C. felis: (4.6)
  Geometric Mean Percent Reduction of Adult C. felis Compared to Untreated Control Group: 93.98%
[4]; single oral dose 45 mg/kg in gelatin capsule, Day 30 post treatment
  Geometric Mean Counts of Adult C. felis: (11.9)
[4]; [22]
  Geometric Mean Counts of Adult C. felis: (35.1)
  Geometric Mean Percent Reduction of Adult C. felis Compared to Untreated Control Group: 48.29%
[4]; single oral dose 50 mg/kg in gelatin capsule, Day 1 post treatment
  Geometric Mean Counts of Adult C. felis: (0.0)
[4]; single oral dose 50 mg/kg in gelatin capsule, Day 1 post treatment, 50 mg/kg
  Geometric Mean Percent Reduction of Adult C. felis Compared to Untreated Control Group: 100%
[4]; [23]
  Geometric Mean Counts of Adult C. felis: (0.0)
  Geometric Mean Percent Reduction of Adult C. felis Compared to Untreated Control Group: 100.00%
[4]; [24]
  Geometric Mean Counts of Adult C. felis: (0.0)
  Geometric Mean Percent Reduction of Adult C. felis Compared to Untreated Control Group: 100.00%
[4]; [25]
  Geometric Mean Counts of Adult C. felis: (0.0)
  Geometric Mean Percent Reduction of Adult C. felis Compared to Untreated Control Group: 100.00%
[4]; [26]
  Geometric Mean Counts of Adult C. felis: (1.6)
  Geometric Mean Percent Reduction of Adult C. felis Compared to Untreated Control Group: 97.33%
[4]; [27]
  Geometric Mean Counts of Adult C. felis: (8.5)
  Geometric Mean Percent Reduction of Adult C. felis Compared to Untreated Control Group: 87.50%
[5]; Day 1
  knockdown efficacy based on geometric means: 100%
[5]; Day 7
  residual efficacy based on geometric means: 99.78%
[5]; Day 14
  residual efficacy based on geometric means: 99.57%
[5]; Day 21
  residual efficacy based on geometric means: 95.83%
[5]; Day 30
  residual efficacy based on geometric means: 90.77%
[5]; Day 37
  residual efficacy based on geometric means: 90.36%
[6]
  tolerability: adequately tolerated
[1]; in vivo
  AUC0-∞ in fed animals relative to fasted animals: 5-10 times
  Cmax in fed animals relative to fasted animals: 4-7 times
